{
  "source": "patent US20090221642A1",
  "about": "“MUSCARINIC RECEPTOR AGONISTS, COMPOSITIONS, METHODS OF TREATMENT THEREOF, AND PROCESSES FOR PREPARATION THEREOF-176” (AstraZeneca AB, priority 2008, published 2009)",
  "assay_type_in_all_cases": "cell-based",
  "key": {"[1]": {"biological_target": "T1, hM1 (human Muscarinic receptor subtype 1) (Homo sapiens, UniProt P11229)", "T1 construct": "expressed in transfected cells; host or cells: CHO cells (Chinese hamster ovary cells, ATCC)", "T1 sequence (P11229 1-460)": "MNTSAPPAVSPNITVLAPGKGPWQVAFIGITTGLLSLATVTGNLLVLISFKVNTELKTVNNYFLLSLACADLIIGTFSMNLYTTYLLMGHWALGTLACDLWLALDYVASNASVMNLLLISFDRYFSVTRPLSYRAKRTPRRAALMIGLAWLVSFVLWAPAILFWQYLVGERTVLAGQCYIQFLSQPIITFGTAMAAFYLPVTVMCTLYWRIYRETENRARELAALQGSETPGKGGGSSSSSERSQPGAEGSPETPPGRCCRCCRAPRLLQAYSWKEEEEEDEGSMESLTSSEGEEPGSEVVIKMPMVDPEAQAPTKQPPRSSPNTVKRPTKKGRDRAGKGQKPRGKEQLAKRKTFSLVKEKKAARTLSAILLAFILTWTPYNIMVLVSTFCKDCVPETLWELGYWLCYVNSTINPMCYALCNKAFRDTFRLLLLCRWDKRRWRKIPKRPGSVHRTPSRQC", "assay": "Human M1 calcium mobilization FLIPR assay", "details": "hM1 expressed in CHO cells, intracellular Ca2+ release", "summary_of_the_method": "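CHO cells expressing the receptor, dye-loaded at 37°C for 60 min, read on FLIPR at 510-570 nm. Agonism taken from compound-induced Ca2+ rise (max RFU for M1); M3/M5 inhibition measured against 2 nM acetylcholine using max minus min RFU. 10-point threefold dilutions, sigmoidal fits.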"}, "[2]": {"biological_target": "T2, hM3 (human Muscarinic receptor subtype 3) (Homo sapiens, UniProt P20309)", "T2 construct": "expressed in transfected cells; host or cells: CHO cells (Chinese hamster ovary cells, ATCC)", "T2 sequence (P20309 whole entry)": "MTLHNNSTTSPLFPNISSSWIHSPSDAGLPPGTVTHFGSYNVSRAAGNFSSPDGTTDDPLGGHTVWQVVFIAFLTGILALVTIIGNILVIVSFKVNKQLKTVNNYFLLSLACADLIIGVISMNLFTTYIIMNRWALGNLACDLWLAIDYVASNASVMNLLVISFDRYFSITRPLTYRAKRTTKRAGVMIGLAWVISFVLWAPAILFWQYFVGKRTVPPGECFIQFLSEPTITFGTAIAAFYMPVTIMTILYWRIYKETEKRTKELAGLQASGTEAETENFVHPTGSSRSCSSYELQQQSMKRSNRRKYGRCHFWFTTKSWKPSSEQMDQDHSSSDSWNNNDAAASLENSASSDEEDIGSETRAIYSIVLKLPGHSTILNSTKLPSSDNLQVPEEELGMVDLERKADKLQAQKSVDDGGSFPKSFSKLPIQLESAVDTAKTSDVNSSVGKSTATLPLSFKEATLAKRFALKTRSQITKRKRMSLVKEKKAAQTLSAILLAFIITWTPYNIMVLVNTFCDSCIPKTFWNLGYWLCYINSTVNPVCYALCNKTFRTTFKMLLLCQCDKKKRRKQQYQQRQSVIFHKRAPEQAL", "assay": "Human M3 calcium mobilization FLIPR assay", "details": "hM3 expressed in CHO cells, intracellular Ca2+ release", "procedure": "(§1) Human M1, rat M1, human M3 and human M5 Calcium Mobilization FLIPR™ Assay\n(§2) The compound activity in the present invention (EC50 or IC50) is measured using a 384 plate-based imaging assay that monitors drug induced intracellular Ca^2+ release in whole cells. Activation of hM1 (human Muscarinic receptor subtype 1, gene bank access NM_000738), rM1 (rat Muscarinic receptor subtype 1, gene bank access NM_080773), hM3 (human Muscarinic receptor subtype 3, gene bank access NM_000740NM_000740) and hM5 (human Muscarinic receptor subtype 5, gene bank access NM_0121258), receptors expressed in CHO cells (Chinese hamster ovary cells, ATCC) is quantified in a Molecular Devices FLIPR II™ instrument as an increase in fluorescent signal. Inhibition of hM3 and hM5 by compounds is determined by the decrease in fluorescent signal in response to 2 nM acetylcholine activation.\n(§3) Prior to experiment, the cell culture medium is removed from the plates by inversion. […] Plates are incubated at 37° C. for 60 minutes prior to start the experiment. The incubation is terminated by washing the cells four times in assay buffer, leaving a residual 25 μl buffer per well. Cell plates are then transferred to the FLIPR, ready for compound additions.\n(§4) The day of experiment, acetylcholine and compounds are diluted in assay buffer in three-fold concentration range (10 points serial dilution) for addition by FLIPR instrument. For all calcium assays, a baseline reading is taken for 10 seconds followed by the addition of 12.5 μl of compounds, resulting in a total well volume of 37.5 μl. Data is collected every second for 60 pictures and then every 6 seconds for 20 pictures prior to the addition of agonist. For hM3 and hM5, before agonist addition, a second baseline reading is taken for 10 seconds followed by the addition of 12.5 μl of agonist or buffer, producing a final volume of 50 μl. After agonist stimulation, the FLIPR continues to collect data every second for 60 pictures and then every 6 seconds for 20 pictures. The fluorescence emission is read using filter 1 (emission 510-570 nm) by the FLIPR on board CCD camera.\n(§5) Calcium mobilization output data are calculated as the maximal relative fluorescence unit (RFU) minus the minimal value for both compound and agonist reading frame (except for hM1 and rM1 using only the maximal RFU). Data are analyzed using sigmoidal fits of a non-linear curve-fitting program (XLfit version 4.2.2 Excel add-in version 4.2.2 build 18 math 1Q version 2.1.2 build 18). All pEC50 and plC50 values are reported as arithmetic means ±standard error of mean of ‘n’ independent experiments."}, "[3]": {"biological_target": "T3, hM5 (human Muscarinic receptor subtype 5) (Homo sapiens, UniProt P08912)", "T3 construct": "expressed in transfected cells; host or cells: CHO cells (Chinese hamster ovary cells, ATCC)", "T3 sequence (P08912 1-532)": "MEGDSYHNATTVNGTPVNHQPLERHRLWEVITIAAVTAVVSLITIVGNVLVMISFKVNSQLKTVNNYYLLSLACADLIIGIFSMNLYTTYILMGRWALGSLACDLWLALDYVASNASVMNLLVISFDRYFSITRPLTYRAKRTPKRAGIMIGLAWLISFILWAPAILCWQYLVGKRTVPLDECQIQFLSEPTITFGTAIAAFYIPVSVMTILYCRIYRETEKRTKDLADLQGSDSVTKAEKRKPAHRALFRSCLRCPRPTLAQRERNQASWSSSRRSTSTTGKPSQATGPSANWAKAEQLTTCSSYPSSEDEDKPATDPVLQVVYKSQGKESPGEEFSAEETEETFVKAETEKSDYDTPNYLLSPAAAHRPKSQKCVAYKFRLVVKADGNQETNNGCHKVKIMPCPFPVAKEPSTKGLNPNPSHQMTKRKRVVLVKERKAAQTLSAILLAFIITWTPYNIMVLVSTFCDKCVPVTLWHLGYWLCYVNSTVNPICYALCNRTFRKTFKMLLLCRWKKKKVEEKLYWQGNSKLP", "assay": "Human M5 calcium mobilization FLIPR assay", "details": "hM5 expressed in CHO cells, intracellular Ca2+ release", "procedure": "as §1, §2, §3, §4, §5"}},
  "note": "Where two headings read alike, the source gives them in different places.",
  "data": [
    {"smiles": "COC(=O)N1CCC(C)(N2CCC(N3C(=O)Cc4cc(F)c(C)cc43)CC2)C1", "note": "(single isomer, unassigned) [Example 83, methyl 3-(4-(5-fluoro-6-methyl-2-oxoindolin-1-yl)piperidin-1-yl)-3-methylpyrrolidine-1-carboxylate]", "values": [
      {"measurement": "EC50", "setting": "[1]; hM1 EC50 (nM)", "result": 26.1, "unit": "nM"},
      {"measurement": "EC50", "setting": "[2]; hM3 EC50 (nM)", "result": "> 18400", "unit": "nM"},
      {"measurement": "EC50", "setting": "[3]; hM5 EC50 (nM)", "result": 3560, "unit": "nM"}
    ]},
    {"smiles": "CCOC(=O)N1CCC(C)(N2CCC(n3c(=O)[nH]c4ccccc43)CC2)C1", "note": "(stereo not drawn) [Example 1, ethyl 3-methyl-3-(4-(2-oxo-2,3-dihydro-1H-benzo[d]imidazol-1-yl)piperidin-1-yl)pyrrolidine-1-carboxylate]", "values": [
      {"measurement": "EC50", "setting": "[1]; read-out: hM1 EC50", "result": 4.2, "unit": "nM"},
      {"measurement": "EC50", "setting": "[2]; read-out: hM3 EC50", "result": 1400, "unit": "nM"},
      {"measurement": "EC50", "setting": "[3]; read-out: hM5 EC50", "result": 136, "unit": "nM"}
    ]},
    {"smiles": "CCNC(=O)N1CCC(C)(N2CCC(n3c(=O)[nH]c4ccccc43)CC2)C1", "note": "(stereo not drawn) [Example 5, N-ethyl-3-methyl-3-(4-(2-oxo-2,3-dihydro-1H-benzo[d]imidazol-1-yl)piperidin-1-yl)pyrrolidine-1-carboxamide]", "values": [
      {"measurement": "EC50", "setting": "[1]; read-out: hM1 EC50", "result": 43.3, "unit": "nM"},
      {"measurement": "EC50", "setting": "[2]; read-out: hM3 EC50", "result": "> 40000", "unit": "nM"},
      {"measurement": "EC50", "setting": "[3]; read-out: hM5 EC50", "result": "> 2960", "unit": "nM"}
    ]},
    {"smiles": "CC1(N2CCC(n3c(=O)[nH]c4cc(F)ccc43)CC2)CCN(C(=O)OCCF)C1", "note": "(stereo not drawn) [Example 10, 2-fluoroethyl 3-(4-(5-fluoro-2-oxo-2,3-dihydro-1H-benzo[d]imidazol-1-yl)piperidin-1-yl)-3-methylpyrrolidine-1-carboxylate]", "values": [
      {"measurement": "EC50", "setting": "[1]; read-out: hM1 EC50", "result": 26.3, "unit": "nM"},
      {"measurement": "EC50", "setting": "[2]; read-out: hM3 EC50", "result": "> 40000", "unit": "nM"},
      {"measurement": "EC50", "setting": "[3]; read-out: hM5 EC50", "result": 537, "unit": "nM"}
    ]}
  ]
}
